From patent US20240024273A1, “TOPICAL ADMINISTRATION OF 2-(DIETHYLAMINO)ETHYL 2-(4-ISOBUTYLPHENYL)PROPRIONATE FOR TREATMENT OF DISEASES” (TECHFIELDS PHARMA CO., LTD., priority 2020, published 2024)

Test system: Mild to Moderate Osteoarthritis of the Knee
Experiment: Phase 2 study: WOMAC (VAS) pain subscale score, target knee
Assay type: in vivo, human
Settings: for Change of WOMAC pain score from baseline (±SEM) / Percentage of improvement from baseline, WOMAC pain score: all patients taken as active
Text: This is a Phase 2, multicenter, randomized, double blind (within dose), placebo controlled, parallel group, proof of concept, and dose range finding study to evaluate the efficacy, safety, and PK of 2-(diethylamino)ethyl 2-(4-isobutylphenyl)propionate hydrochloride spray in adult subjects with clinically symptomatic mild to moderate OA of the knee. For subjects with bilateral knee pain, both knees will be treated, but the most symptomatic knee (i.e., the most painful knee as measured by the Western Ontario and McMaster University Osteoarthritis Index [WOMAC® 3.1] pain subscale score at Screening) will be designated as the target knee for efficacy analyses. For subjects with unilateral knee pain, only the symptomatic (target) knee will be treated.
After a Screening Period of up to 3 weeks and radiographic evaluation of the target knee joint space, a subject will be randomly assigned to 1 of 3 treatment groups in a 1:1:1 ratio with a 2:1 ratio of active:placebo within each treatment group (ie, 2 subjects to active treatment and 1 subject to placebo): • Group A: 8.75 mg 2-(diethylamino)ethyl 2-(4-isobutylphenyl)propionate/knee (2 sprays/knee, one spray to the medial surface and one spray to the lateral surface of the knee), twice daily (BID, approximately every 12 hours; n=50) or placebo (2 sprays/knee), BID (approximately every 12 hours; n=25) for a total of 4 sprays per knee per day; • Group B: 17.5 mg 2-(diethylamino)ethyl 2-(4-isobutylphenyl)propionate/knee (4 sprays/knee, one spray to the medial surface and one spray to the lateral surface of the knee, and one spray to front and one spray to the back of the knee), BID (approximately every 12 hours; n=50) or placebo (4 sprays/knee), BID (approximately every 12 hours; n=25) for a total of 8 sprays per knee per day; • Group C: 35 mg 2-(diethylamino)ethyl 2-(4-isobutylphenyl)propionate/knee (8 sprays/knee, each spray is to be applied to a different non-overlapping area around the knee, and the areas are to be uniformly distributed around the knee), BID (approximately every 12 hours; n=50) or placebo (8 sprays/knee), BID (approximately every 12 hours; n=25) for a total of 16 sprays per knee per day.
The VAS version of the WOMAC will be used for the Primary and Secondary Efficacy Endpoints. Efficacy endpoints will be assessed at Screening and Baseline (Day 1) and at the Week 2, Week 4, Week 8, and Week 12/EOS visits.
The Primary Efficacy Endpoint is the change from Baseline in the WOMAC (VAS) pain subscale score for the target knee at […] of treatment.
3.9.2. Secondary Efficacy Endpoints: • 1. Change from Baseline in the WOMAC (VAS) pain subscale score for the target knee at 2, 4, and 8 weeks of treatment; • 2. Change from Baseline in the WOMAC (VAS) stiffness subscale scores for the target knee and WOMAC (VAS) functional ability subscale scores at 2, 4, 8, and 12 weeks of treatment; • 3. Change from Baseline in the overall WOMAC (VAS) score at 2, 4, 8, and 12 weeks of treatment.
The Primary Efficacy Endpoint is change from Baseline in the WOMAC (VAS) pain subscale score for the target knee at 4 weeks of treatment, and will be analyzed using an analysis of covariance (ANCOVA). Treatment will be included as a fixed class effect and WOMAC Baseline pain subscale score as covariates. The primary comparisons of interest will be the difference between active Group A (8.75 mg 2-(diethylamino)ethyl 2-(4-isobutylphenyl)propionate/knee) and combined placebo, active Group B (17.5 mg 2-(diethylamino)ethyl 2-(4-isobutylphenyl)propionate/knee) and combined placebo, and active Group C (35 mg 2-(diethylamino)ethyl 2-(4-isobutylphenyl)propionate/knee) and combined placebo. […]

[1] = 8.75 mg/knee (BID), Follow up (week 13, day 91)
[2] = 8.75 mg/knee (BID), Week 2 (day 14)
[3] = 8.75 mg/knee (BID), Week 4 (day 28)
[4] = 8.75 mg/knee (BID), Week 8 (day 56)
[5] = 8.75 mg/knee (BID), Week 12 (day 84)
[6] = 17.5 mg/knee (BID), Follow up (week 13, day 91)
[7] = 17.5 mg/knee (BID), Week 2 (day 14)
[8] = 17.5 mg/knee (BID), Week 4 (day 28)
[9] = 17.5 mg/knee (BID), Week 8 (day 56)
[10] = 17.5 mg/knee (BID), Week 12 (day 84)
[11] = 35 mg/knee (BID), Follow up (week 13, day 91)
[12] = 35 mg/knee (BID), Week 2 (day 14)
[13] = 35 mg/knee (BID), Week 4 (day 28)
[14] = 35 mg/knee (BID), Week 8 (day 56)
[15] = 35 mg/knee (BID), Week 12 (day 84)

CCN(CC)CCOC(=O)C(C)c1ccc(CC(C)C)cc1 (stereo not drawn) [2-(diethylamino)ethyl 2-(4-isobutylphenyl)propionate]
Change of WOMAC pain score from baseline (±SEM), adjusted by […] of the testing drug amount [1]: −34.5(±5.6) mm
Percentage of improvement from baseline, WOMAC pain score, adjusted by […] of the testing drug amount [1]: −57.6%
Change of WOMAC pain score from baseline (±SEM) [1]: −20.1(±3.25) mm
Percentage of improvement from baseline, WOMAC pain score [1]: −33.6%
Change of WOMAC pain score from baseline (±SEM), adjusted by […] of the testing drug amount [2]: −19.2(±4.1) mm
Percentage of improvement from baseline, WOMAC pain score, adjusted by […] of the testing drug amount [2]: −32.1%
Change of WOMAC pain score from baseline (±SEM) [2]: −11.2(±2.39) mm
Percentage of improvement from baseline, WOMAC pain score [2]: −18.7%
Change of WOMAC pain score from baseline (±SEM), adjusted by […] of the testing drug amount [3]: −29.2(±4.8) mm
Percentage of improvement from baseline, WOMAC pain score, adjusted by […] of the testing drug amount [3]: −48.7%
Change of WOMAC pain score from baseline (±SEM) [3]: −17.0(±2.79) mm
Percentage of improvement from baseline, WOMAC pain score [3]: −28.4%
Change of WOMAC pain score from baseline (±SEM), adjusted by […] of the testing drug amount [4]: −36.7(±4.8) mm
Percentage of improvement from baseline, WOMAC pain score, adjusted by […] of the testing drug amount [4]: −61.4%
Change of WOMAC pain score from baseline (±SEM) [4]: −21.4(±2.81) mm
Percentage of improvement from baseline, WOMAC pain score [4]: −35.8%
Change of WOMAC pain score from baseline (±SEM), adjusted by […] of the testing drug amount [5]: −37.0(±5.4) mm
Percentage of improvement from baseline, WOMAC pain score, adjusted by […] of the testing drug amount [5]: −61.9%
Change of WOMAC pain score from baseline (±SEM) [5]: −21.6(±3.13) mm
Percentage of improvement from baseline, WOMAC pain score [5]: −36.1%
Change of WOMAC pain score from baseline (±SEM), adjusted by […] of the testing drug amount [6]: −37.9(±5.2) mm
Percentage of improvement from baseline, WOMAC pain score, adjusted by […] of the testing drug amount [6]: −62.1%
Change of WOMAC pain score from baseline (±SEM) [6]: −22.1(±3.01) mm
Percentage of improvement from baseline, WOMAC pain score [6]: −36.2%
Change of WOMAC pain score from baseline (±SEM), adjusted by […] of the testing drug amount [7]: −25.7(±3.7) mm
Percentage of improvement from baseline, WOMAC pain score, adjusted by […] of the testing drug amount [7]: −42.2%
Change of WOMAC pain score from baseline (±SEM) [7]: −15.0(±2.18) mm
Percentage of improvement from baseline, WOMAC pain score [7]: −24.6%
Change of WOMAC pain score from baseline (±SEM), adjusted by […] of the testing drug amount [8]: −35.2(±4.8) mm
Percentage of improvement from baseline, WOMAC pain score, adjusted by […] of the testing drug amount [8]: −57.6%
Change of WOMAC pain score from baseline (±SEM) [8]: −20.5(±2.79) mm
Percentage of improvement from baseline, WOMAC pain score [8]: −33.6%
Change of WOMAC pain score from baseline (±SEM), adjusted by […] of the testing drug amount [9]: −43.1(±4.9) mm
Percentage of improvement from baseline, WOMAC pain score, adjusted by […] of the testing drug amount [9]: −70.5%
Change of WOMAC pain score from baseline (±SEM) [9]: −25.1(±2.88) mm
Percentage of improvement from baseline, WOMAC pain score [9]: −41.1%
Change of WOMAC pain score from baseline (±SEM), adjusted by […] of the testing drug amount [10]: −45.5(±5.0) mm
Percentage of improvement from baseline, WOMAC pain score, adjusted by […] of the testing drug amount [10]: −74.4%
Change of WOMAC pain score from baseline (±SEM) [10]: −26.5(±2.94) mm
Percentage of improvement from baseline, WOMAC pain score [10]: −43.4%
Change of WOMAC pain score from baseline (±SEM), adjusted by […] of the testing drug amount [11]: −41.2(±5.3) mm
Percentage of improvement from baseline, WOMAC pain score, adjusted by […] of the testing drug amount [11]: −69.5%
Change of WOMAC pain score from baseline (±SEM) [11]: −24.0(±3.09) mm
Percentage of improvement from baseline, WOMAC pain score [11]: −40.5%
Change of WOMAC pain score from baseline (±SEM), adjusted by […] of the testing drug amount [12]: −21.6(±4.0) mm
Percentage of improvement from baseline, WOMAC pain score, adjusted by […] of the testing drug amount [12]: −36.5%
Change of WOMAC pain score from baseline (±SEM) [12]: −12.6(±2.33) mm
Percentage of improvement from baseline, WOMAC pain score [12]: −21.3%
Change of WOMAC pain score from baseline (±SEM), adjusted by […] of the testing drug amount [13]: −30.4(±4.4) mm
Percentage of improvement from baseline, WOMAC pain score, adjusted by […] of the testing drug amount [13]: −51.2%
Change of WOMAC pain score from baseline (±SEM) [13]: −17.7(±2.54) mm
Percentage of improvement from baseline, WOMAC pain score [13]: −29.9%
Change of WOMAC pain score from baseline (±SEM), adjusted by […] of the testing drug amount [14]: −38.1(±5.1) mm
Percentage of improvement from baseline, WOMAC pain score, adjusted by […] of the testing drug amount [14]: −64.3%
Change of WOMAC pain score from baseline (±SEM) [14]: −22.2(±2.97) mm
Percentage of improvement from baseline, WOMAC pain score [14]: −37.5%
Change of WOMAC pain score from baseline (±SEM), adjusted by […] of the testing drug amount [15]: −43.6(±5.2) mm
Percentage of improvement from baseline, WOMAC pain score, adjusted by […] of the testing drug amount [15]: −73.6%
Change of WOMAC pain score from baseline (±SEM) [15]: −25.4(±3.04) mm
Percentage of improvement from baseline, WOMAC pain score [15]: −42.9%
